Results reported in US20080014272A1, “Compositions and Methods for Treatment of Chronic Pain Conditions” (priority 2006, published 2008).

What was measured:
[1] = Visual analog scale (VAS) of osteoarthritis pain in human osteoarthritis subjects; format: in vivo; conditions: 400 mg bicifadine and/or 800 mg ibuprofen twice daily for seven days; baseline to 3 hours post dose on final day; FIG. 2
Procedure: (§1) 23 adult human subjects with clinically confirmed osteoarthritis (OA) of the hip or knee were selected based on (1) a finding of OA through clinical analysis of hip or knee pain for at least six months, (2) stiffness symptoms that persisted for more than 30 minutes (4) crepitus and (5) score of >40 mm on the visual analog scale (VAS). […]
(§2) Each patient's pain and function levels was rated just prior to administration of the first dose in each treatment period to establish a baseline and three hours after administration of the final dose of each treatment period. Subjects were evaluated according to the visual analog scale (FIG. 2), the Western Ontario and MacMaster Universities Osteoarthritis Index (WOMAC) (FIG. 3) and a global assessment score (FIG. 4).
For the visual analog scale, each subject was asked the following question: “Draw a vertical line on the scale to indicate the average amount osteoarthritis pain you have in your index hip or knee in the prior 24 h period. • No Pain [______] Worst Pain You Can Imagine 100 mm The length of the line from “No Pain” to the vertical line drawn by the patient was then measured to determine the VAS measurement.

[2] = WOMAC Osteoarthritis Index in human osteoarthritis subjects; format: in vivo; conditions: 400 mg bicifadine and/or 800 mg ibuprofen twice daily for seven days; 3 h post-dose on last day; FIG. 3
Procedure: as §1, §2
Subjects were also evaluated according to the Western Ontario and MacMaster Universities Osteoarthritis Index (WOMAC) and asked the following series of questions: […]

[3] = Global Assessment of Study Medication in human osteoarthritis subjects; format: in vivo; conditions: 400 mg bicifadine and/or 800 mg ibuprofen twice daily for seven days; 3 h post-dose on last day; scale 0-4; FIG. 4
Procedure: 23 adult human subjects with clinically confirmed osteoarthritis (OA) of the hip or knee were selected based on (1) a finding of OA through clinical analysis of hip or knee pain for at least six months, (2) stiffness symptoms that persisted for more than 30 minutes (4) crepitus and (5) score of >40 mm on the visual analog scale (VAS). […] (Altman R. Asch E, Bloch D, Bole G, Borenstein D, Brandt K, et al. The American College of Rheumatology criteria for the classification and reporting of osteoarthritis of the knee. Arthritis Rheum 1986; 29:1039-1049) The subjects were randomized to a sequence of 400 mg of bicifadine twice daily for seven days (B), ibuprofen 800 mg twice daily for seven days (I), placebo twice daily for seven days (P), or 400 mg bicifadine and 800 mg ibuprofen twice daily for seven days (B+I) as shown in Table 3. […]
as §2
Subjects were further evaluated for a global assessment and were asked the following question: […]

[4] = Monoiodoacetamide (MIA)-induced osteoarthritis in rats, hind paw weight distribution; format: in vivo, Male Wistar rats; conditions: oral gavage (PO), Day 14 post MIA injection, 1 and 2 hours post-administration; bicifadine 5, 10, 20, 40 or 60 mg/kg, morphine 60 mg/kg; FIG. 1
Procedure: Animals were fed standard rat chow with water available ad libitum.
The rats were anesthetized with 5% volume/volume (“v/v”) isoflurane gas and maintained with 2% v/v isoflurane gas. […] MIA was dissolved in physiologic saline and administered in a volume of 50 μL. The contralateral control knee was injected with 50 μL of physiologic saline. Administration of isoflurane gas was discontinued, and the rats became fully conscious about 5 minutes later.
Shifts in hind paw weight distribution from the right to the left hind paws supporting the right (arthritic) and the left (contralateral control) hind leg knee joints were utilized as an index of joint pain and as a measure of compound efficacy. An incapacitance tester (Model 2KG, Linton Instrumentation, UK) was employed for determination of hind paw weight distribution.
The acute dosing paradigm used herein relates to osteoarthritis signs such as mobility and joint function and osteoarthritis symptoms such as joint pain.

[5] = Duration of analgesic efficacy and plasma bicifadine levels in acute pain studies; format: in vivo, human; conditions: bicifadine HCl, unit doses about 200 mg, 400 mg, or 600 mg; acute dental pain and bunionectomy pain studies
Procedure: Duration of analgesic efficacy of bicifadine in acute dental pain studies was estimated using a “last observation carried forward” (LOCF) statistical method, and was projected to last up to 6 hours, or even up to 12 hours (see, e.g., Czobor P., et al., Stark J., Beer G., Petti S., Lippa A., Brown J., Beer B.: A Double-Blind, Placebo Controlled Randomized Study of DOV220,075 (bicifadine) SR and Codeine 60 mg in the Treatment of Post-Operative Dental Pain. Presented at the 2nd Annual Scientific Meeting Mar. 20-23, 2003 Chicago, Ill. American Pain Society Abstract Database at http://www.ampainsoc.org/abstract/2003/data/index.html. (Poster #915)); Czobor P., Stark J., Beer G., Brown J., Sunshine A., Konery S., Turpin M., Olson N., Otero A., Lippa A., Beer B.: A two center double-blind, placebo-controlled randomized study of DOV 220,075 (bicifadine) SR and Tramadol 100 mg in the treatment of post-operative dental pain. The Journal of Pain, 2004: 5(1), Supplement 1, p 59. Presented at the Joint APS and Canadian Pain Society Annual Meeting (23rd APS Annual Scientific Meeting) May 6-9, 2004, Vancouver, BC Canada. American Pain Society Abstract Database at http://www.ampainsoc.org/abstract/2004/data/index.html (Poster #801); each incorporated herein by reference). […]

[6] = acute dental pain; Stern et al. 2005; cited from earlier work
[7] = Use of rescue medication in acute dental pain clinical trial (Stern et al.); format: in vivo, human
Procedure: These conclusions are further substantiated by the use of rescue medication by subjects in the Stem et al. acute dental pain studies. Table I below summarizes information on the use of rescue medication for patients who took rescue medication among the various treatment groups in the clinical trial reported by Stern et al. (id.) A nonparametric analysis (Median Test) was conducted to evaluate the median latency to rescue medication.
Survival analysis (Kaplan-Meier method, 95% confidence) was performed to compare the treatment groups with regard to time-to-rescue medication. […] The analysis yielded a statistically significant difference among the treatment groups (Log-Rank test, Chi-square=26.9, df=4, P=0.0001). […] In view of the foregoing evidence, the present disclosure documenting efficacy of a reduced, bi-daily or less frequent dosing regimen of bicifadine to yield effective treatment of chronic pain are unexpected. […] It is a surprising benefit, therefore, that a dosing regimen consisting of only one or two doses of bicifadine effectively alleviates symptoms of chronic pain over an extended period. The extended period of efficacy of the novel compositions and dosage forms of the invention provide significant relief of chronic pain symptoms over a period of at least 8 hours, or at least 12 hours, often at least 18 hours, and up to 24 hours or longer.

For CC(C)Cc1ccc(C(C)C(=O)O)cc1 (centres unmarked) [ibuprofen, reference compound], the “Reduction of OA pain as measured by the visual analog scale” value [1] was “no different than treatment with placebo” and the “Improvement of functioning as determined by the WOMAC osteoarthritis index” value [2] was “no better than placebo”.
In the case of Cc1ccc(C23CNCC2C3)cc1 (racemic) [bicifadine, (±)-1-(4-methylphenyl)-3-azabicyclo[3.1.0]hexane], the “Global assessment score of study medication” value [3] is reported as “marginally better than treatment with either placebo or ibuprofen alone”, the “Reduction of OA pain as measured by the visual analog scale” value [1] is reported as “no different than treatment with placebo” and the “Effect on osteoarthritis-related pain (change in hind paw weight distribution)” value [4] is reported as “no significant effect”. The “Period of analgesic efficacy for effectively treating acute pain” value [5] was “up to 6 hours”, the “Plasma bicifadine levels associated with the greatest pain relief” value [6] was over 1000 ng/mL and the “Plasma drug levels associated with significant analgesic efficacy” value [6] was 500 to 1000 ng/mL. For the same compound, the “Plasma drug levels not associated with significant analgesic effects” value [6] was at most 500 ng/mL and the “Improvement of functioning as determined by the WOMAC osteoarthritis index” value [2] was “no better than placebo”.
In the case of COc1cccc(C2(O)CCCCC2CN(C)C)c1 (centres unmarked) [Tramadol], the “Time-to-rescue medication vs placebo (Kaplan-Meier survival analysis, Log-Rank test)” value ([7]; 100-mg, Chi-square=18.7, df=1, P=0.0001) is reported as “significantly less likely to use rescue medication”, the “Median Time to Rescue Medication” value ([7]; single dose 100 mg) is reported as 2.45 h and the “Used Rescue Medication (N) No” value ([7]; single dose 100 mg) is reported as 24. The “Used Rescue Medication (N) Yes” value ([7]; single dose 100 mg) was 85.
